Measurements as given in US20250212876A1, “METHOD FOR CONTROLLING PLANT DISEASES” (SUMITOMO CHEMICAL COMPANY, LIMITED, priority 2022, published 2025).

Legend:
Assay type in all cases: cell-based
[1] = test system: Barley scald fungus (Rhynchosporium secalis); assay: Test Example 3: control test against barley scald fungus, titer plate growth; conditions: 150 ppm in DMSO, 1 μL + 150 μL PDB broth; 18° C., 7 days; absorbance at 550 nm
Experimental: (§1) The untreated groups in the Test Example 3, the Test Example 5 and the Test Example 6 represents a treated group in which the procedures are carried out under the same conditions as those described in each of Test Examples except that DMSO is dispensed in place of a diluted DMSO solution containing the Present compound. The untreated groups in the Test Example 7 and the Test Example 15 represents a test in which the procedures are carried out under the same conditions as those described in each of the Test Examples except that DMSO is dispensed in place of a diluted DMSO solution containing the present compound. […]
(§2) The present compound 77 was diluted with DMSO so as to contain 150 ppm, and 1 μL of the dilution solutions were dispensed into titer plate (96 well), and thereafter, thereto was then dispensed 150 μL of a potato dextrose broth (PDB broth) to which conidia of Rhynchosporium secalis were inoculated in advance. This plate was cultured at 18° C. for 7 days, thereby allowing Rhynchosporium secalis to undergo proliferation, and the absorbance at 550 nm of each well of the titer plate was then measured to determine a degree of growth of the Rhynchosporium secalis.

[2] = test system: Peach scab fungus (Cladosporium carpophilum); assay: Test Example 5: control test against peach scab fungus, titer plate growth; conditions: 150 ppm in DMSO, 1 μL + 150 μL PDB broth; 18° C., 5 days; absorbance at 550 nm
Experimental: as §1
as §2, with “of Cladosporium carpophilum” for “of Rhynchosporium secalis”, “for 5” for “for 7”, “allowing Cladosporium carpophilum” for “allowing Rhynchosporium secalis”, “the Cladosporium carpophilum.” for “the Rhynchosporium secalis.”

[3] = test system: Rice brown spot fungus (Cochliobolus miyabeanus); assay: Test Example 6: control test against rice brown spot fungus, titer plate growth; conditions: 150 ppm in DMSO, 1 μL + 150 μL YB liquid medium; 23° C., 3 days; absorbance at 550 nm
Experimental: The untreated groups in the Test Example 3, the Test Example 5 and the Test Example 6 represents a treated group in which the procedures are carried out under the same conditions as those described in each of Test Examples except that DMSO is dispensed in place of a diluted DMSO solution containing the Present compound. The untreated groups in the Test Example 7 and the Test Example 15 represents a test in which the procedures are carried out under the same conditions as those described in each of the Test Examples except that DMSO is dispensed in place of a diluted DMSO solution containing the present compound. Also, the untreated groups in the Test Example 8, the Test Example 9, the Test Example 10 and the Test Example 11 represents a test in which a diluted aqueous solution of the formulation containing the present compound isn't sprayed.
The present compound 77 was diluted with DMSO so as to contain 150 ppm, and 1 μL of the dilution solutions were dispensed into titer plate (96 well), and thereafter, thereto was then dispensed 150 μL of YB liquid medium to which conidia of Cochliobolus miyabeanus were inoculated in advance. This plate was cultured at 23° C. for 3 days, thereby allowing Cochliobolus miyabeanus to undergo proliferation, and the absorbance at 550 nm of each well of the titer plate was then measured to determine a degree of growth of the Cochliobolus miyabeanus.

Measured: growth in the treated well compared to the growth in an untreated well

O=S(=O)(c1cccc(-c2cc(F)c(Cl)c(F)c2)c1)c1ccncn1 [compound 77]
≤ 50%: all assays above
